# From ChEMBL document CHEMBL5465560, “Selectivity Literature for EUbOPEN Chemogenomic Library” (2024)
# Tests used:
# [1] = biological target: T1, Protein kinase C epsilon type (Homo sapiens) (UniProt Q02156); experiment: Selectivity interaction (KinomeScan (DiscoverX)) EUB0000092b PRKCE; details: at 10 µM
# T1 sequence (whole entry): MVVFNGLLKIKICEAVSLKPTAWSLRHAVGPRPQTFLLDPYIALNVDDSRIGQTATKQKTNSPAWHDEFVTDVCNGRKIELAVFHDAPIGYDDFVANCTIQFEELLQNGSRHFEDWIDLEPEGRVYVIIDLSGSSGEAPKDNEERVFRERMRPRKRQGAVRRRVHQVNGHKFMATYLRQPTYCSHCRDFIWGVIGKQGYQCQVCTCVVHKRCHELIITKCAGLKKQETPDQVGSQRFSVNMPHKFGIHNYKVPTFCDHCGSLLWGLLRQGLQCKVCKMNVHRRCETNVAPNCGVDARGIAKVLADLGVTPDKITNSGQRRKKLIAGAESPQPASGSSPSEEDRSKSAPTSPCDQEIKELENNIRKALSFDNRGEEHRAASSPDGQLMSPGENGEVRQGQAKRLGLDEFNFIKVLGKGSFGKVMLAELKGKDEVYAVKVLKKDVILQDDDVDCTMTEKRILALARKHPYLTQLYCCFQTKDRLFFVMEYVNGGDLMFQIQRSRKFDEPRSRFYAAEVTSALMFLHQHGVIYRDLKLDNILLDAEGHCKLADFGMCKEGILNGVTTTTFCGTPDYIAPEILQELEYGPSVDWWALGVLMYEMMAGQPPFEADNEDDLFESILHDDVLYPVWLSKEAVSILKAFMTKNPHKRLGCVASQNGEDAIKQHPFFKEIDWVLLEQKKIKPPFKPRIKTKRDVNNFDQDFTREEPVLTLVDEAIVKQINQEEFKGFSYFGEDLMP
# [2] = tested on: Hepatocyte growth factor receptor (Homo sapiens), P08581 [M1250T]; experiment: (§1) Selectivity interaction (KinomeScan (DiscoverX)) EUB0001079a MET; details: at 1 µM
# Chain of Hepatocyte growth factor receptor (Homo sapiens), P08581 [M1250T] (P08581 whole entry M1250T): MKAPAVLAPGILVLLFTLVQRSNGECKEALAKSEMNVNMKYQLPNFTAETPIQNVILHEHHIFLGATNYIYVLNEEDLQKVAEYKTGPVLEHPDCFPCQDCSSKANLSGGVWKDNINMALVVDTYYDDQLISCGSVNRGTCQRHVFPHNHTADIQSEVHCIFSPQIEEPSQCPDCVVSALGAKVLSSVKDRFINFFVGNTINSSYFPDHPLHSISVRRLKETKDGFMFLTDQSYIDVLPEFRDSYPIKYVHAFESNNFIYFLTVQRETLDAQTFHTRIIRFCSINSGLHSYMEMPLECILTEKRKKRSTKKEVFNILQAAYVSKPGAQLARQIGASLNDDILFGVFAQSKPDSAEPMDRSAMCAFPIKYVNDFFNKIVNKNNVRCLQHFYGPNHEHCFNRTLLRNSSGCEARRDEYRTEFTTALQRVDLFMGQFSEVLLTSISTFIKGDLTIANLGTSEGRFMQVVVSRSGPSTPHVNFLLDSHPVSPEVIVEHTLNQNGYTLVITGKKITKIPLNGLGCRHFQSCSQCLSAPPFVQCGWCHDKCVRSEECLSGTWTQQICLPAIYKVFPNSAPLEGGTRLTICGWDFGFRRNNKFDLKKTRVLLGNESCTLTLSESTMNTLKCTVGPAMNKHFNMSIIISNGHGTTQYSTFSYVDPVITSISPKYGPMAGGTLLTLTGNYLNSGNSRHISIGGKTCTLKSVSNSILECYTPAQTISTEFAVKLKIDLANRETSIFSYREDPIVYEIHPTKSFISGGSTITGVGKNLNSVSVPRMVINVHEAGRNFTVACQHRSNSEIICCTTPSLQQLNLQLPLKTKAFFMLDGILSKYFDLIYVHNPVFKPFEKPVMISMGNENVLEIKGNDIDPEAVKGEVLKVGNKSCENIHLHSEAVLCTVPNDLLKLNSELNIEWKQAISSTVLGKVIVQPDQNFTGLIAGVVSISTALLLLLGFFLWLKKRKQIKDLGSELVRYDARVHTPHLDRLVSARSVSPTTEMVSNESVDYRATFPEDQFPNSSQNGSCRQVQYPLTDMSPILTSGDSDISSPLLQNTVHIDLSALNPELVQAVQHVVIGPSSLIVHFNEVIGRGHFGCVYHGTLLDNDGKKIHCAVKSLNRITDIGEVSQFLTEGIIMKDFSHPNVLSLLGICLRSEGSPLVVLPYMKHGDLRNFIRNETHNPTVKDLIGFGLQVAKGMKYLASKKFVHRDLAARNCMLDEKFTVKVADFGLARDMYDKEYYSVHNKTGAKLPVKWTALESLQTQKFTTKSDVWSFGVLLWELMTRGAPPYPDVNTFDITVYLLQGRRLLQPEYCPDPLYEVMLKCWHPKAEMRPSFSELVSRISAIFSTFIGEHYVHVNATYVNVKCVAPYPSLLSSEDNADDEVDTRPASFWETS
# [3] = tested on: Hepatocyte growth factor receptor (Homo sapiens), P08581 [Y1235D]; experiment: as §1; details: at 1 µM
# Chain of Hepatocyte growth factor receptor (Homo sapiens), P08581 [Y1235D] (P08581 whole entry Y1235D): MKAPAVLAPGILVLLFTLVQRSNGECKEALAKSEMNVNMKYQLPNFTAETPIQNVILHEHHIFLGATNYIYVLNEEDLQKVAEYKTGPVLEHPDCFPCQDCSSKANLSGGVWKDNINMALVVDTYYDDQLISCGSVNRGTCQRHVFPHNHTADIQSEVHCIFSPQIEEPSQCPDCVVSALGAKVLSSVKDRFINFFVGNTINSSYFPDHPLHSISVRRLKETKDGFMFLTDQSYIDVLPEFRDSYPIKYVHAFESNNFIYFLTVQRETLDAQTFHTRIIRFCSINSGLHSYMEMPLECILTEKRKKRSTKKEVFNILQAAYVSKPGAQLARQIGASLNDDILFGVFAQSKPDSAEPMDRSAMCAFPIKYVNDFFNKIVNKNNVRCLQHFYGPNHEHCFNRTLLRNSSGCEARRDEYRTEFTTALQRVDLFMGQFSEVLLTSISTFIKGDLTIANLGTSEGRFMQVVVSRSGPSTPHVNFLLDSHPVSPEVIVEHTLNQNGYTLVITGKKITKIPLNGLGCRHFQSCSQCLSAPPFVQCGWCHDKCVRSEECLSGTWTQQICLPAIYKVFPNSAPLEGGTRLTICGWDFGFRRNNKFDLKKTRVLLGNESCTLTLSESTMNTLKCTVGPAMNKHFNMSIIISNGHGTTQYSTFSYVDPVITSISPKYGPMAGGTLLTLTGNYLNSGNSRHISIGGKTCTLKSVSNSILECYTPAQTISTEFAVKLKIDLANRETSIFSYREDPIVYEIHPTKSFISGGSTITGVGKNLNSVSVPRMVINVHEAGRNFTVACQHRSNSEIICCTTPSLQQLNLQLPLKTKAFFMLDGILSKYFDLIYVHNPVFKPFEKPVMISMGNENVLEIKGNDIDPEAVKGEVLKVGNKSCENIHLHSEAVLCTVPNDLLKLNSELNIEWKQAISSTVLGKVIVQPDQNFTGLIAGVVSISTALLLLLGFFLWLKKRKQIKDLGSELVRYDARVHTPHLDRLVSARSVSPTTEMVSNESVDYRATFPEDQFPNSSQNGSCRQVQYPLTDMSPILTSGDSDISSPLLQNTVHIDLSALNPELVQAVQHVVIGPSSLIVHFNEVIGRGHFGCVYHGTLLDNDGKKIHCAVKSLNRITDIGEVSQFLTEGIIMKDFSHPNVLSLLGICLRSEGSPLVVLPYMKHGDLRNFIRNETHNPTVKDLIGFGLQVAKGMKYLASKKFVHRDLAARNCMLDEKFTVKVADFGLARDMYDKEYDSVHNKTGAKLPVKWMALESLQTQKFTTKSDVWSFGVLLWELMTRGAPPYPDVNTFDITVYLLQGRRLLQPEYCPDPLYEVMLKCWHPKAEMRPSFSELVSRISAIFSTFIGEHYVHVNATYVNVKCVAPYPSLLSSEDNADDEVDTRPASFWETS
# [4] = biological target: Hepatocyte growth factor receptor (Homo sapiens, UniProt P08581); experiment: as §1; details: at 1 µM
# Chain of Hepatocyte growth factor receptor (P08581 whole entry): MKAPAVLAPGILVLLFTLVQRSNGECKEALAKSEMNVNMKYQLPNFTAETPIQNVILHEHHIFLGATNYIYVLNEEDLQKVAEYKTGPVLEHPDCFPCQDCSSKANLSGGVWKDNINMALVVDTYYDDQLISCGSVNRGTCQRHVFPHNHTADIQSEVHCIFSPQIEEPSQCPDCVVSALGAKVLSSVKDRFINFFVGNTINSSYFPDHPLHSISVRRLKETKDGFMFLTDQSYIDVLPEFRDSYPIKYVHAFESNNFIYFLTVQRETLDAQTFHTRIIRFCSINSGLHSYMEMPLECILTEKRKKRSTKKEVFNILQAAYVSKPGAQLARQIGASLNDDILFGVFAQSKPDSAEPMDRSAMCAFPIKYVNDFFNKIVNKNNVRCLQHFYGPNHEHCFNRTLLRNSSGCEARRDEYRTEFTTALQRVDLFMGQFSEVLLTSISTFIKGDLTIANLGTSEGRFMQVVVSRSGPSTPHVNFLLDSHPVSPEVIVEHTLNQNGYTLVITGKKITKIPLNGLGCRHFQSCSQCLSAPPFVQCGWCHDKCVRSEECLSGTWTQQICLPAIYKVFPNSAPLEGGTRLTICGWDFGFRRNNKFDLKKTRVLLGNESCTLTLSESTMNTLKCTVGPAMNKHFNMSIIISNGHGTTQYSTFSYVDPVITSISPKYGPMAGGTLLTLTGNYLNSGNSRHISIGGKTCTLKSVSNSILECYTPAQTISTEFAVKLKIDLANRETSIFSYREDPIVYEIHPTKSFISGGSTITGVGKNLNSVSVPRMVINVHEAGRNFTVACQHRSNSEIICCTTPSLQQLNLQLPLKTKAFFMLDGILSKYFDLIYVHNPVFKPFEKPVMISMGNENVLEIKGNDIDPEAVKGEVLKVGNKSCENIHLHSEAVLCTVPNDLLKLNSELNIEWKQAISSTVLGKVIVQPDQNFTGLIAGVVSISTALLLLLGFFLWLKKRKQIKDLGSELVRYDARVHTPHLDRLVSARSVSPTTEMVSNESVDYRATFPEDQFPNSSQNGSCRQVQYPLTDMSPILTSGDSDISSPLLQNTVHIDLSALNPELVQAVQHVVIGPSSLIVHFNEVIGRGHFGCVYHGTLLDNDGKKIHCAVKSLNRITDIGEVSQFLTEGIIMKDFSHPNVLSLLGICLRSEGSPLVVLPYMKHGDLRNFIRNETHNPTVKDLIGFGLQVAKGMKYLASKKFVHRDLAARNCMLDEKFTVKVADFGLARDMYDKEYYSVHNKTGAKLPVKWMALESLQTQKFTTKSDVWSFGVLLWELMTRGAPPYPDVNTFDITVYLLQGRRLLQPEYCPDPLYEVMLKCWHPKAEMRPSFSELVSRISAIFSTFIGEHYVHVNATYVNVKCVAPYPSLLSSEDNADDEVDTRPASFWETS
# [5] = biological target: DNA-dependent protein kinase catalytic subunit (Homo sapiens) (UniProt P78527); experiment: Selectivity interaction (Kinase panel (KiNativ target engagement assay in Jurkat cells)) EUB0001635a PRKDC; assay type: cell-based; details: Selectivity number of off-targets 0.0, Selectivity number of targets 233.0, Source Knowledge https://www.sciencedirect.com/science/article/pii/S2451945619300674?via%3Dihub, at 1 µM
# [6] = biological target: T2, Mitogen-activated protein kinase kinase kinase 19 (Homo sapiens) (UniProt Q56UN5); details: at 10 µM
# T2 sequence (whole entry): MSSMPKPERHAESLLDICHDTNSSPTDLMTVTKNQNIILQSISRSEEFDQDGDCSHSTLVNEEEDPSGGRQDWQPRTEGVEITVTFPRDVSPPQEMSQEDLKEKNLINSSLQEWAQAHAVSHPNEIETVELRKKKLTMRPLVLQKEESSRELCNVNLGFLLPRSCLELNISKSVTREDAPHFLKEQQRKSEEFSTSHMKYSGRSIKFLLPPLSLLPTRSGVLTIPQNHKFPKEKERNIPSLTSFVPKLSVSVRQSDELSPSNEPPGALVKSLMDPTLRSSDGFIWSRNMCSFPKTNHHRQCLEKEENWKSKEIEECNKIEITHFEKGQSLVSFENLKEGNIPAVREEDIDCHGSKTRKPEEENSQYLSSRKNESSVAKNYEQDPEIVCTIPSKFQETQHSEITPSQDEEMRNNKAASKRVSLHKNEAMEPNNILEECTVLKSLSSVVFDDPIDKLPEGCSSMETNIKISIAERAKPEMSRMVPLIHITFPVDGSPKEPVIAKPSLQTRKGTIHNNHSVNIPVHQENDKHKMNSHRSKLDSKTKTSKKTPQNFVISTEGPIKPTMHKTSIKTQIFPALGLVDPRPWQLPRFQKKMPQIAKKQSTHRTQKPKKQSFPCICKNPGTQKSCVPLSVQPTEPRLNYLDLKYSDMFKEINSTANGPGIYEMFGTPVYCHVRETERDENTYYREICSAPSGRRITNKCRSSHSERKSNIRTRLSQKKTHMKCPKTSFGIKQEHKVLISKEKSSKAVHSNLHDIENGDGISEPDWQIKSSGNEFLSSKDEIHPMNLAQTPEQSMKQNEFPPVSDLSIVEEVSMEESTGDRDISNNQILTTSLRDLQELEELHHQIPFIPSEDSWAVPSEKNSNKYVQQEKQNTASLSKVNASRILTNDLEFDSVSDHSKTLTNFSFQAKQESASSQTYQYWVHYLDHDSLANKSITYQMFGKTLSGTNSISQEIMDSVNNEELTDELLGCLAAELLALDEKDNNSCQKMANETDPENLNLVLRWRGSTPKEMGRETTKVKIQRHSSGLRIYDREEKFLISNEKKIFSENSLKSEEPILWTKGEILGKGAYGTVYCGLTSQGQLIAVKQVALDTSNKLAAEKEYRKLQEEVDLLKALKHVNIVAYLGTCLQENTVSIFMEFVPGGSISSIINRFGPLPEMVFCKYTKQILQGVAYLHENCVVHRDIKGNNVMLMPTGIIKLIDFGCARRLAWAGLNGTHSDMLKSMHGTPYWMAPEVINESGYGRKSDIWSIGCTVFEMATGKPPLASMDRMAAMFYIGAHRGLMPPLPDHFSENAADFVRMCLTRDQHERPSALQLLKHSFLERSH
# [7] = biological target: AP2-associated protein kinase 1 (Homo sapiens, UniProt Q2M2I8); experiment: Selectivity interaction (KinomeScan (DiscoverX)) EUB0000607a AAK1; details: at 10 µM
# [8] = biological target: Casein kinase I isoform gamma-1 (Homo sapiens) (UniProt Q9HCP0); experiment: Selectivity interaction (Ambit KINOMEscan and KiNATiv profiling in Jurkat cells) EUB0000090b CSNK1G1; assay type: cell-based; details: at 1 µM
# Chain of Casein kinase I isoform gamma-1 (Homo sapiens) (Q9HCP0 whole entry, looked up, canonical isoform): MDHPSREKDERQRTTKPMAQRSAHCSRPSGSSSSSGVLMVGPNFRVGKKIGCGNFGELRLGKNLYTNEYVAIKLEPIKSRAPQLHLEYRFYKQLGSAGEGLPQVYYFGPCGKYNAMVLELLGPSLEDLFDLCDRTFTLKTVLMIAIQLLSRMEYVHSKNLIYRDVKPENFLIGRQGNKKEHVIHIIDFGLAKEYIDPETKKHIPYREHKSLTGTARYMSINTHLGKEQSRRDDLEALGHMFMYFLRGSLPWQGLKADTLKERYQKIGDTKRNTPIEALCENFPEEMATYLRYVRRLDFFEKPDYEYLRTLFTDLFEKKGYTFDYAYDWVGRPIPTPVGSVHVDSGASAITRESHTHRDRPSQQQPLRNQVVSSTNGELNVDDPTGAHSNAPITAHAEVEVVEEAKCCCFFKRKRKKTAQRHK
smiles,measurement,setting,value
CCC(=O)N1CCN(c2ccc(-n3c(=O)ccc4cnc5ccc(-c6cnc7ccccc7c6)cc5c43)cc2C(F)(F)F)CC1,% of control,[1],86%
Nc1cnc(N2CCc3cc(S(=O)(=O)Nc4c(F)cc(Cl)cc4F)cc(N4CCCC4=O)c32)nc1 [TP-020n],% of control,[2],100%
same,% of control,[3],69%
same,% of control,[4],69%
C=CC(=O)Nc1ccc(C(=O)Nc2[nH]nc3c2CN(C(=O)N[C@H](CN(C)C)c2ccccc2)C3(C)C)cc1,% of engagement,[5],-14%
Cc1cc([C@@H](C)Nc2ccccc2C(=O)O)c2nc(N3CCOCC3)cc(=O)n2c1 [AZD-6482],% of control,[6],100%
CNC(=O)Nc1ccc(-c2nc(N3CC4CCC(C3)O4)c3cnn(C4CCC5(CC4)OCCO5)c3n2)cc1,% of control,[7],100%
CN(C)C/C=C/C(=O)Nc1ccc(C(=O)N2CCCC(Nc3ncc(Cl)c(-c4c[nH]c5ccccc45)n3)C2)cc1 (stereo not drawn),% of control,[8],94%
